Data taken from patent publication US8163898B2, “4-sulfonylpiperidine derivatives” (MSD K. K., priority 2007, dated 2012).

molecular target: T1, human LCE (Homo sapiens, UniProt Q9H5J4); test: LCE enzyme activity inhibition test; format: biochemical; details: not given
T1 sequence (Q9H5J4 1-265): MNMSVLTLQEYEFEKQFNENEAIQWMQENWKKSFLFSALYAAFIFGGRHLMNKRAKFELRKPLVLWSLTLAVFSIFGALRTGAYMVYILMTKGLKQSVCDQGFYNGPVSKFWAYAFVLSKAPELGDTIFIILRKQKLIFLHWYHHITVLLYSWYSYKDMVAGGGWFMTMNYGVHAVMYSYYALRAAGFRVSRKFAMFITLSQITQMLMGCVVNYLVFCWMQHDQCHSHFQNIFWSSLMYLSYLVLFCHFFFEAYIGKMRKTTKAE
Description: Pharmacological Test Example 1 (LCE Enzyme Activity Inhibition Test)
A test compound was dissolved in dimethylsulfoxide (DMSO) to 10 mM, and further diluted with DMSO to prepare a 1000-fold concentrated solution, compared with the evaluated concentration. The LCE enzyme activity inhibition test was carried out according to a modification of the method of Moon (J. Biol. Chem., Vol. 276, pp. 45358-45366 (2001)) et al. Specifically, the diluted test compound was added to a 96-well assay plate (Corning, 96-well assay block) at 1.0 μL per well, and then 50 μL of phosphate buffer solution (100 mM potassium phosphate buffer solution (pH 6.5)), 25 μL of substrate solution (100 mM potassium phosphate buffer solution (pH 6.5)), 4.0 μM rotenone, 80 μM fatty acid free bovine serum albumin, 160 μM palmitoyl-CoA 80 μM malonyl-CoA, and 3.5 μM [^14C]-malonyl-CoA (1.92 GBq/mmol, manufactured by Amersham) were added to each well. Further, 25 μL of enzyme solution (100 mM potassium phosphate buffer solution (pH 6.5), 100 μg/mL human LCE) was added thereto. The plate was hermetically closed at the top with a seal, and then incubated with gentle agitation by shaking at 37° C. for 90 minutes. Subsequently, 100 μL of 5N HCl was added to each well, and the assay plate was agitated for 5 minutes at room temperature to stop the enzymatic reaction and also hydrolyze acyl-CoA. Subsequently, the enzymatic reaction solution of each well was adsorbed on each well of a 96-well GF/C filter plate (PerkinElmer, UniFilter 96 GF/C) that had been previously dipped in water. The wells were washed with water to remove unabsorbed malonyl-CoA, and the GF/C filter plate was dried at 50° C. for 60 minutes. Subsequently, 30 μL of scintillator (PerkinElmer, MicroScinti 0) was added to each well, and the plate was sealed at the top. Using a microplate scintillation counter (PerkinElmer, TopCount), the radiation activity of the fixed [^14C] was measured and obtained as the enzyme activity. The human LCE enzyme inhibitory activity of a test compound was calculated based on the radio activity in the well containing test-compound-free DMSO as a control. Compounds of the invention were examined according to this assay.

| SMILES | IC50 [nM] |
| --- | --- |
| O=C(Nc1ccc(C(F)(F)F)cc1)N1C2CCC1CC(S(=O)(=O)c1ccccn1)C2 (centres unmarked) [Example 9, 3-(pyridin-2-ylsulfonyl)-N-[(4-trifluoromethyl)phenyl]-8-azabicyclo[3.2.1]octane-8-carboxamide] | 92 |

same assay, conditions: human LCE; [14C]-malonyl-CoA and palmitoyl-CoA substrate; 37° C. for 90 minutes; pH 6.5; read-out: IC50

| SMILES | IC50 [nM] |
| --- | --- |
| O=C(Nc1ccc(C(F)(F)F)cc1)N1C2CCC1CC(S(=O)(=O)c1ccc(F)cc1)C2 (centres unmarked) [Example 2, 3-(4-fluorophenyl)sulfonyl-N-[(4-trifluoromethyl)phenyl]-8-azabicyclo[3.2.1]octane-8-carboxamide] | 108 |
| O=C(Nc1cncc(C(F)(F)F)c1)N1C2CCC1CC(S(=O)(=O)c1ccccc1)C2 (centres unmarked) [Example 33, 3-phenylsulfonyl-N-[5-(trifluoromethyl)pyridin-3-yl]-8-azabicyclo[3.2.1]octane-8-carboxamide] | 103 |
| O=C(Nc1ccc(C(F)(F)F)nc1)N1C2CCC1CC(S(=O)(=O)c1ccccc1)C2 (centres unmarked) [Example 32, 3-phenylsulfonyl-N-[6-(trifluoromethyl)pyridin-3-yl]-8-azabicyclo[3.2.1]octane-8-carboxamide] | 127 |
| CC(C)(C)c1ccc(NC(=O)N2C3CCC2CC(S(=O)(=O)c2ccccn2)C3)cc1 (centres unmarked) [Example 40, N-(4-tert-butylphenyl)-3-(pyridin-2-ylsulfonyl)-8-azabicyclo[3.2.1]octane-8-carboxamide] | 125 |
| O=C(Nc1ccc(C(F)(F)F)cc1)N1C2CCC1CC(S(=O)(=O)c1ccccc1)C2 (centres unmarked) [Example 1, 3-phenylsulfonyl-N-[(4-trifluoromethyl)phenyl]-8-azabicyclo[3.2.1]octane-8-carboxamide] | 98 |

The next lines start with the values.

| IC50 [nM] | SMILES |
| --- | --- |
| 100 | O=C(Nc1ccc(C(F)(F)F)cc1)N1C2CCC1CC(S(=O)(=O)c1ncccn1)C2 (centres unmarked) [Example 12, 3-(pyrimidin-2-ylsulfonyl)-N-[(4-trifluoromethyl)phenyl]-8-azabicyclo[3.2.1]octane-8-carboxamide] |
| 22 | CC(C)c1ccc(NC(=O)N2C3CCC2CC(S(=O)(=O)c2ncccn2)C3)cc1 (centres unmarked) [Example 37, N-(4-isopropylphenyl)-3-(pyrimidin-2-ylsulfonyl)-8-azabicyclo[3.2.1]octane-8-carboxamide] |
| 29 | CC(C)c1ccc(NC(=O)N2C3CCC2CC(S(=O)(=O)c2ccccc2)C3)cc1 (centres unmarked) [Example 16, N-(4-isopropylphenyl)-3-phenylsulfonyl-8-azabicyclo[3.2.1]octane-8-carboxamide] |
| 194 | O=C(Nc1ccc(C(F)(F)F)cn1)N1C2CCC1CC(S(=O)(=O)c1ncccn1)C2 (centres unmarked) [Example 35] |
| 32 | CC(C)c1ccc(NC(=O)N2C3CCC2CC(S(=O)(=O)c2ccccn2)C3)cc1 (centres unmarked) [Example 36, N-(4-isopropylphenyl)-3-(pyridin-2-ylsulfonyl)-8-azabicyclo[3.2.1]octane-8-carboxamide] |
